Laboratory results taken from patent US11572398B2, “GLP-1 derivatives and uses thereof” (Novo Nordisk A/S, priority 2014, dated 2023).
Like-named read-outs stand apart in the source and are kept apart here.

How the values were obtained:
in vivo = settings: male, Göttingen, minipig, iv
Experimental: The purpose of this study is to determine the protraction in vivo of the GLP-1 derivatives after i.v. administration to minipigs, i.e. the prolongation of their time in the body and thereby their time of action. This is done in a pharmacokinetic (PK) study, where the terminal half-life of the derivative in question is determined. By terminal half-life is meant the time it takes to halve a certain plasma concentration in the terminal elimination phase.
Male Göttingen minipigs were obtained from Ellegaard Göttingen Minipigs (Dalmose, Denmark) approximately 7-14 months of age and weighing approximately 16-35 kg were used in the studies. The minipigs were housed either individually (pigs with permanent catheters) or in a group and fed restrictedly once or twice daily with SDS minipig diet (Special Diets Services, Essex, UK).
After at least 2 weeks of acclimatisation two permanent central venous catheters were implanted in vena cava caudalis or cranialis in each animal. The animals were allowed 1 week recovery after the surgery, and were then used for repeated pharmacokinetic studies with a suitable wash-out period between successive GLP-1 derivative dosings.
Blood samples (for example 0.8 ml) were collected in EDTA buffer (8 mM) and then centrifuged at 4° C. and 1942G for 10 minutes.
Plasma was pipetted into Micronic tubes on dry ice, and kept at −20° C. until analysed for plasma concentration of the respective GLP-1 compound using LOCI. Individual plasma concentration-time profiles were analyzed by a non-compartmental pharmacokinetic method in Phoenix v. 6.2 (Pharsight Inc., Mountain View, Calif., USA), or other relevant software for PK analysis, and the resulting terminal half-lives (harmonic mean) determined.

human GLP-1 receptor [1] = molecular target: T1, human GLP-1 receptor (Homo sapiens, UniProt P43220); assay: GLP-1 receptor binding: competitive binding assay (125I-GLP-1, SPA) on isolated membranes at low and high HSA
T1 construct: expressed in transfected cells; host or cells: BHK cells (parent line BHKTS13), clone FCW467-12A; membrane preparation

human GLP-1 receptor [2] = molecular target: T1, human GLP-1 receptor; assay: In vitro potency: CRE luciferase reporter gene assay in BHK cells expressing the human GLP-1 receptor; type: cell-based; settings: whole cell reporter gene assay, BHK cells, human GLP-1 receptor; average of at least two replicates; read-out: EC50
Summary of the method: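 Whole-cell assay in stably transfected BHK cells carrying CRE-driven firefly luciferase, 5×10^3 cells/well, in assay buffer with 2% ovalbumin and 0.2% Pluronic F-68. Compound working solutions were 0.2 μM.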

[3] = high HSA (2.0% final assay concentration), read-out: High HSA IC50
[4] = low HSA (max. 0.001% final assay concentration), read-out: Low HSA IC50

T1 sequence (P43220 24-463): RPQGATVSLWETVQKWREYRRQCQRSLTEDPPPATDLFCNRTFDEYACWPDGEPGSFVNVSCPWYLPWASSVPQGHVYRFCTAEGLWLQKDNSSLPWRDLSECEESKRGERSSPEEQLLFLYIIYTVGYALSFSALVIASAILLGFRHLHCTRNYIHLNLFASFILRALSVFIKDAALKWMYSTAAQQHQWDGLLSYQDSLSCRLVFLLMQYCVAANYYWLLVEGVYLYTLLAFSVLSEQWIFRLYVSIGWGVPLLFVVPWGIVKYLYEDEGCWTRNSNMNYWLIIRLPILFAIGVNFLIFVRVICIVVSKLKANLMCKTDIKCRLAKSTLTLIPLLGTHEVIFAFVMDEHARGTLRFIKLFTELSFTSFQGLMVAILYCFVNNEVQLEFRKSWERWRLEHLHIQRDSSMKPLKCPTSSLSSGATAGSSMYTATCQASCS

CC[C@H](C)[C@H](NC(=O)[C@H](Cc1ccccc1)NC(=O)[C@H](CCC(=O)O)NC(=O)[C@H](CCCNC(=N)N)NC(=O)[C@H](C)NC(=O)[C@H](C)NC(=O)[C@H](CCC(N)=O)NC(=O)[C@H](CCC(=O)O)NC(=O)[C@H](CCC(=O)O)NC(=O)[C@H](CC(C)C)NC(=O)[C@H](Cc1ccc(O)cc1)NC(=O)[C@H](CO)NC(=O)[C@H](CO)NC(=O)[C@@H](NC(=O)[C@H](CC(=O)O)NC(=O)[C@H](CO)NC(=O)[C@@H](NC(=O)[C@H](Cc1ccccc1)NC(=O)[C@@H](NC(=O)CNC(=O)[C@H](CCC(=O)O)NC(=O)C(C)(C)NC(=O)[C@@H](N)Cc1c[nH]cn1)[C@@H](C)O)[C@@H](C)O)C(C)C)C(=O)N[C@@H](C)C(=O)N[C@@H](Cc1c[nH]c2ccccc12)C(=O)N[C@@H](CC(C)C)C(=O)N[C@H](C(=O)N[C@@H](CCCNC(=N)N)C(=O)NCC(=O)N[C@@H](CCCNC(=N)N)C(=O)N[C@@H](CCCCNC(=O)CN(CCCNC(=O)COCCOCCNC(=O)COCCOCCNC(=O)COCCOCCNC(=O)COCCOCCNC(=O)COCCOCCNC(=O)[C@@H](N)CCCCNC(=O)[C@@H](N)CCCCNC(=O)CCCCCCCCCCCCCCCCCCC(=O)O)CCCNC(=O)COCCOCCNC(=O)COCCOCCNC(=O)COCCOCCNC(=O)COCCOCCNC(=O)COCCOCCNC(=O)[C@@H](N)CCCCNC(=O)[C@@H](N)CCCCNC(=O)CCCCCCCCCCCCCCCCCCC(=O)O)C(=O)O)C(C)C [Example 1, N{Epsilon-37}-[2-[bis[3-[[2-[2-[2-[[2-[2-[2-[[2-[2-[2-[[2-[2-[2-[[2-[2-[2-[[(2S)-2-amino-6-[[(2S)-2-amino-6-(19-carboxynonadecanoylamino)hexanoyl]amino]hexanoyl]amino]ethoxy]ethoxy]acetyl]amino]ethoxy]ethoxy]acetyl]amino]ethoxy]ethoxy]acetyl]amino]ethoxy]ethoxy]acetyl]amino]ethoxy]ethoxy]acetyl]amino]propyl]amino]acetyl]-[Ab8,Glu22,Arg26,Arg34,Lys37]-GLP-1-(7-37)-peptide]
half-life (in vivo): 130 h

CC[C@H](C)[C@H](NC(=O)[C@H](Cc1ccccc1)NC(=O)[C@H](CCC(=O)O)NC(=O)[C@H](CCCNC(=N)N)NC(=O)[C@H](C)NC(=O)[C@H](C)NC(=O)[C@H](CCC(N)=O)NC(=O)[C@H](CCC(=O)O)NC(=O)[C@H](CCC(=O)O)NC(=O)[C@H](CC(C)C)NC(=O)[C@H](Cc1ccc(O)cc1)NC(=O)[C@H](CO)NC(=O)[C@H](CO)NC(=O)[C@@H](NC(=O)[C@H](CC(=O)O)NC(=O)[C@H](CO)NC(=O)[C@@H](NC(=O)[C@H](Cc1ccccc1)NC(=O)[C@@H](NC(=O)CNC(=O)[C@H](CCC(=O)O)NC(=O)C(C)(C)NC(=O)[C@@H](N)Cc1c[nH]cn1)[C@@H](C)O)[C@@H](C)O)C(C)C)C(=O)N[C@@H](C)C(=O)N[C@@H](Cc1c[nH]c2ccccc12)C(=O)N[C@@H](CC(C)C)C(=O)N[C@H](C(=O)N[C@@H](CCCNC(=N)N)C(=O)NCC(=O)N[C@@H](CCCNC(=N)N)C(=O)N[C@@H](CCCCNC(=O)CN(CCCNC(=O)COCCOCCNC(=O)COCCOCCNC(=O)COCCOCCNC(=O)COCCOCCNC(=O)[C@@H](N)CCCCNC(=O)[C@@H](N)CCCCNC(=O)CCCCCCCCCCCCCCCCCCC(=O)O)CCCNC(=O)COCCOCCNC(=O)COCCOCCNC(=O)COCCOCCNC(=O)COCCOCCNC(=O)[C@@H](N)CCCCNC(=O)[C@@H](N)CCCCNC(=O)CCCCCCCCCCCCCCCCCCC(=O)O)C(=O)O)C(C)C [Example 2, N{Epsilon-37}-[2-[bis[3-[[2-[2-[2-[[2-[2-[2-[[2-[2-[2-[[2-[2-[2-[[(2S)-2-amino-6-[[(2S)-2-amino-6-(19-carboxynonadecanoylamino)hexanoyl]amino]hexanoyl]amino]ethoxy]ethoxy]acetyl]amino]ethoxy]ethoxy]acetyl]amino]ethoxy]ethoxy]acetyl]amino]ethoxy]ethoxy]acetyl]amino]propyl]amino]acetyl]-[Aib8,Glu22,Arg26,Arg34,Lys37]-GLP-1-(7-37)-peptide]
IC50 (human GLP-1 receptor [1]; [3]): 11000 pM
IC50 (human GLP-1 receptor [1]; [4]): 190 pM
half-life (in vivo): 113 h

CC[C@H](C)[C@H](NC(=O)[C@H](Cc1ccccc1)NC(=O)[C@H](CCC(=O)O)NC(=O)[C@H](CCCNC(=N)N)NC(=O)[C@H](C)NC(=O)[C@H](C)NC(=O)[C@H](CCC(N)=O)NC(=O)[C@H](CCC(=O)O)NC(=O)[C@H](CCC(=O)O)NC(=O)[C@H](CC(C)C)NC(=O)[C@H](Cc1ccc(O)cc1)NC(=O)[C@H](CO)NC(=O)[C@H](CO)NC(=O)[C@@H](NC(=O)[C@H](CC(=O)O)NC(=O)[C@H](CO)NC(=O)[C@@H](NC(=O)[C@H](Cc1ccccc1)NC(=O)[C@@H](NC(=O)CNC(=O)[C@H](CCC(=O)O)NC(=O)C(C)(C)NC(=O)CCc1cnc[nH]1)[C@@H](C)O)[C@@H](C)O)C(C)C)C(=O)N[C@@H](C)C(=O)N[C@@H](Cc1c[nH]c2ccccc12)C(=O)N[C@@H](CC(C)C)C(=O)N[C@H](C(=O)N[C@@H](CCCNC(=N)N)C(=O)NCC(=O)N[C@@H](CCCNC(=N)N)C(=O)N[C@@H](CCCCNC(=O)CN(CCCNC(=O)COCCOCCNC(=O)COCCOCCNC(=O)COCCOCCNC(=O)COCCOCCNC(=O)[C@@H](N)CCCCNC(=O)[C@@H](N)CCCCNC(=O)CCCCCCCCCCCCCCCCCCC(=O)O)CCCNC(=O)COCCOCCNC(=O)COCCOCCNC(=O)COCCOCCNC(=O)COCCOCCNC(=O)[C@@H](N)CCCCNC(=O)[C@@H](N)CCCCNC(=O)CCCCCCCCCCCCCCCCCCC(=O)O)C(=O)O)C(C)C [Example 4]
IC50 (human GLP-1 receptor [1]; [4]): 130 pM
half-life (in vivo): 243 h

CC[C@H](C)[C@H](NC(=O)[C@H](Cc1ccccc1)NC(=O)[C@H](CCC(=O)O)NC(=O)[C@H](CCCNC(=N)N)NC(=O)[C@H](C)NC(=O)[C@H](C)NC(=O)[C@H](CCC(N)=O)NC(=O)[C@H](CCC(=O)O)NC(=O)[C@H](CCC(=O)O)NC(=O)[C@H](CC(C)C)NC(=O)[C@H](Cc1ccc(O)cc1)NC(=O)[C@H](CO)NC(=O)[C@H](CO)NC(=O)[C@@H](NC(=O)[C@H](CC(=O)O)NC(=O)[C@H](CO)NC(=O)[C@@H](NC(=O)[C@H](Cc1ccccc1)NC(=O)[C@@H](NC(=O)CNC(=O)[C@H](CCC(=O)O)NC(=O)C(C)(C)NC(=O)[C@@H](N)Cc1c[nH]cn1)[C@@H](C)O)[C@@H](C)O)C(C)C)C(=O)N[C@@H](C)C(=O)N[C@@H](Cc1c[nH]c2ccccc12)C(=O)N[C@@H](CC(C)C)C(=O)N[C@H](C(=O)N[C@@H](CCCNC(=N)N)C(=O)NCC(=O)N[C@@H](CCCNC(=N)N)C(=O)N[C@@H](CCCCNC(=O)CN(CCCNC(=O)CCOCCOCCOCCOCCNC(=O)CCOCCOCCOCCOCCNC(=O)CCOCCOCCOCCOCCNC(=O)[C@@H](N)CCCCNC(=O)[C@@H](N)CCCCNC(=O)CCCCCCCCCCCCCCCCCCC(=O)O)CCCNC(=O)CCOCCOCCOCCOCCNC(=O)CCOCCOCCOCCOCCNC(=O)CCOCCOCCOCCOCCNC(=O)[C@@H](N)CCCCNC(=O)[C@@H](N)CCCCNC(=O)CCCCCCCCCCCCCCCCCCC(=O)O)C(=O)O)C(C)C [Example 5, N{Epsilon-37}-[2-[bis[3-[3-[2-[2-[2-[2-[3-[2-[2-[2-[2-[3-[2-[2-[2-[2-[[(2S)-2-amino-6-[[(2S)-2-amino-6-(19-carboxynonadecanoylamino)hexanoyl]amino]hexanoyl]amino]ethoxy]ethoxy]ethoxy]ethoxy]propanoylamino]ethoxy]ethoxy]ethoxy]ethoxy]propanoylamino]ethoxy]ethoxy]ethoxy]ethoxy]propanoylamino]propyl]amino]acetyl]-[Aib8,Glu22,Arg26,Arg34,Lys37]-GLP-1-(7-37)-peptide]
half-life (in vivo): 122 h

CC[C@H](C)[C@H](NC(=O)[C@H](Cc1ccccc1)NC(=O)[C@H](CCC(=O)O)NC(=O)[C@H](CCCNC(=N)N)NC(=O)[C@H](C)NC(=O)[C@H](C)NC(=O)[C@H](CCC(N)=O)NC(=O)[C@H](CCC(=O)O)NC(=O)[C@H](CCC(=O)O)NC(=O)[C@H](CC(C)C)NC(=O)[C@H](Cc1ccc(O)cc1)NC(=O)[C@H](CO)NC(=O)[C@H](CO)NC(=O)[C@@H](NC(=O)[C@H](CC(=O)O)NC(=O)[C@H](CO)NC(=O)[C@@H](NC(=O)[C@H](Cc1ccccc1)NC(=O)[C@@H](NC(=O)CNC(=O)[C@H](CCC(=O)O)NC(=O)C(C)(C)NC(=O)[C@@H](N)Cc1c[nH]cn1)[C@@H](C)O)[C@@H](C)O)C(C)C)C(=O)N[C@@H](C)C(=O)N[C@@H](Cc1c[nH]c2ccccc12)C(=O)N[C@@H](CC(C)C)C(=O)N[C@H](C(=O)N[C@@H](CCCNC(=N)N)C(=O)NCC(=O)N[C@@H](CCCNC(=N)N)C(=O)N[C@@H](CCCCNC(=O)COCCOCCNC(=O)COCCOCCNC(=O)COCCOCCNC(=O)COCCOCCNC(=O)COCCOCCNC(=O)COCCOCCNC(=O)CN(CCCNC(=O)[C@H](CO)NC(=O)CC[C@H](NC(=O)[C@H]1CC[C@H](CNC(=O)CCCCCCCCCCCCCCCCCCC(=O)O)CC1)C(=O)O)CCCNC(=O)[C@H](CO)NC(=O)CC[C@H](NC(=O)[C@H]1CC[C@H](CNC(=O)CCCCCCCCCCCCCCCCCCC(=O)O)CC1)C(=O)O)C(=O)O)C(C)C [Example 25]
EC50 (human GLP-1 receptor [2]): 30 pM
IC50 (human GLP-1 receptor [1]; Low HSA IC50, low HSA (max. 0.001% final assay concentration)): 910 pM
IC50 (human GLP-1 receptor [1]; [3]): 41000 pM
